Data as given in patent US20150374705A1, “Substances for treatment or relief of pain” (Shanghai Institues for Biological Sciences, priority 2012, published 2015).
“Also recorded” adds a separate entry of the source. Read-outs that look alike come from different tables or passages of the source.

Experiments:
[1] = tested on: SNI model rats (neuropathic pain); assay: Spared nerve injury (SNI) model, neuropathic pain, mechanical pain threshold; format: in vivo; conditions: rat; for Neuropathic pain (SNI model), analgesic effect: 3 mg/kg subcutaneous, 14 days after SNI, 1 hour after administration
Protocol: Male SD rats (200-250 g) were used, 6 per group in the cage. All the animals were placed under 12 hours light/cycle (i.e. 12 hours light and 12 hours dark in each day), free to food and water. All the experiments were conducted under the condition that the observers were blind to pharmaceutical treatment.
Spared nerve injury model (SNI): 10% chloral hydrate was injected intraperitoneally to anesthetize rats. […] The muscle was longitudinally separated to expose the core of sciatic nerve and the branching below: tibial nerve, common peroneal nerve and sural nerve. The tibial nerve and common peroneal nerve were ligatured and cut and small sural nerve was retained, meanwhile preventing any injury. The muscle and skin were sutured layer by layer, and then antibiotics were injected intraperitoneally for antibacterial purpose. For detailed methods, please refer to Decosterd I and Woolf C J. Spared nerve injury: an animal model of persistent peripheral neuropathic pain. 2000 August; Pain 87(2):149-58.
Method for detecting mechanical hyperalgesia in rats: firstly CFA solution was injected in the thenar of rats. After 24 hours, mechanical hyperalgesia quantitative detection was adopted to measure the paw withdrawal of rats to normal and harmless mechanical stimulation. Evaluation was conducted according to reference (Chaplan S R et al., Quantitative assessment of tactile allodynia in the rat paw. J Neurosci Methods. 1994 July; 53(1):55-63). In this method, the von Frey fibers with different bending force (equivalent to the range of 1-50 g force) were used to apply harmless mechanical stimulation. The rats were placed in organic glass box with metal mesh plate, and the von Frey fibers were applied on the surface of leg thenar. The von Frey fibers were applied vertically to the surface of thenar to generate the force that will trigger slight resistance to the leg. 2-3 seconds were maintained for every leg thenar. If the leg withdrew suddenly, positive records were recorded. The threshold was the mean of the weight that caused 50% paw withdrawal response (5-6 paw withdrawal/10 stimulations) in overall 10 stimulations.
Compounds MRK 016, C2, C3, C4, C5, C6, C7, C8 or α5IA (A5I) were dissolved in 70% PGE400 (PGE400:water=70:30 in volume). For injection dose, MRK016 was 2 mg/kg body weight; A5I was 3 mg/kg body weight; C2, C3, C4, C5, C6, C7 and C8 were 3 mg/kg body weight.
MRK016-M3 was dissolved in 90% PGE400 (PGE400:water=90:10 in volume). The doses were 10 mg/kg, 3 mg/kg, 1 mg/kg and 0.3 mg/kg, respectively for oral administration.
The method for behavioral data statistics was unpaired t-test. *, p<0.05, represents significant difference.

[2] = tested on: CFA induced inflammatory pain model rats (heat pain); assay: CFA induced inflammatory pain model, heat pain threshold; format: in vivo; conditions: rat, 3 mg/kg injection, 3 days after CFA, 1 hour after administration
[3] = tested on: CFA induced inflammatory pain model rats (mechanical pain); assay: CFA induced inflammatory pain model, mechanical pain threshold; format: in vivo; conditions: rat, 3 mg/kg injection, 7 days after CFA, 1 hour after administration
[4] = Tissue distribution, brain/plasma ratio by LC-MS; format: in vivo, rat; conditions: for Kp at 1 h: sc, 3 mg/kg, subcutaneous injection, 1 hour after injection; for Kp at 1 h / Kp: rat
Protocol: The second method was to measure the tissue distribution of the substance to be measured in animal tissues. Firstly the candidate substance was administrated to animals by injection (or oral administration). The brain tissue and plasma tissue were extracted 0.25-2.0 hours after injection. liquid Chromatograph Mass SpectrometerL-MS was used to measure the concentration of the drug. If the brain/plasma ratio of the compound is less than 0.5, then the candidate substance is a potential drug for treating pain with fewer side effects.
Meanwhile, the inventors detected the distribution of these compounds in the tissue of rats. Firstly the substances to be measured were subcutaneously injected into the body of animals. Then brain tissue and plasma tissue were extracted 1 hour after injection. Ls-MS was used to measure the concentration of drugs. If the brain/plasma ratio of the compound is less than 0.1, then the candidate substance is a potential drug for treating pain with fewer side effects.

[5] = brain and plasma extracted 0.25-2.0 hours after injection, LC-MS

| SMILES | Neuropathic pain (SNI model), analgesic effect [1] | CFA induced inflammatory pain model (heat pain), analgesic effect [2] | CFA induced inflammatory pain model (mechanical pan), analgesic effect [3] | Kp at 1 h ([4]; brain and plasma, LC-MS) | further results |
| --- | --- | --- | --- | --- | --- |
| CC(C)(C)C1C(OCc2cccnc2)=NN2C(c3cc(CO)on3)=NN=CC12 (stereo not drawn) [Compound C3, (3-(3-tert-butyl-2-(3-pyridylmethoxyl)-3,3a-2H-pyrazolo[1,5-d][1,2,4]triazin-7-yl)isoxazole-5-yl)methanol] | – | – | – | – | Neuropathic pain (SNI model), analgesic effect ([1]; 3 mg/kg): efficiently treat pain; also recorded: efficiently suppressed neuropathic pain; CFA induced inflammatory pain model (heat pain), analgesic effect ([2]; 3 mg/kg): efficiently treat chronic pain; also recorded: efficiently suppressed heat pain or mechanical pain response; CFA induced inflammatory pain model (mechanical pan), analgesic effect ([3]; 3 mg/kg): efficiently treat pain; also recorded: efficiently suppressed heat pain or mechanical pain response |
| Cc1ncn2c1Cn1ncnc1-c1cc(I)ccc1-2 | Significant analgesic effect | Significant analgesic effect | Significant analgesic effect | < 0.1 | – |
| OCc1cc(-c2nnc3c4ccccc4c(OCc4cccnc4)nn23)no1 [Compound C6, {3-[6-(Pyridin-3-ylmethoxy)-[1,2,4]triazolo[3,4-a]phthalazin-3-yl]-isoxazol-5-yl}-methanol] | – | – | – | – | Neuropathic pain (SNI model), analgesic effect ([1]; 3 mg/kg): efficiently inhibit nociceptive response; also recorded: efficiently suppressed neuropathic pain; CFA induced inflammatory pain model (heat pain), analgesic effect ([2]; 3 mg/kg): efficiently inhibit nociceptive response; also recorded: efficiently suppressed heat pain or mechanical pain response; CFA induced inflammatory pain model (mechanical pan), analgesic effect ([3]; 3 mg/kg): efficiently inhibit nociceptive response; also recorded: efficiently suppressed heat pain or mechanical pain response |
| FC(F)c1ncn2c1Cn1ncnc1-c1cc(Br)ccc1-2 [drawing 58] | Significant analgesic effect | Significant analgesic effect | Significant analgesic effect | > 0.2 | – |
| Cc1ncn2c1Cn1ncnc1-c1cc(Cl)ccc1-2 | Significant analgesic effect | Significant analgesic effect | Significant analgesic effect | 0.2 | – |
| FC(F)c1ncn2c1Cn1ncnc1-c1cc(I)ccc1-2 | Significant analgesic effect | Significant analgesic effect | Significant analgesic effect | – | – |
| OCc1cc(-c2nnc3c4ccccc4c(OCc4ccncc4)nn23)no1 [Compound C7, {3-[6-(Pyridin-4-ylmethoxy)-[1,2,4]triazolo[3,4-a]phthalazin-3-yl]isoxazol-5-yl}-methanol] | – | – | – | – | Neuropathic pain (SNI model), analgesic effect ([1]; 3 mg/kg): efficiently inhibit nociceptive response; also recorded: efficiently suppressed neuropathic pain; CFA induced inflammatory pain model (heat pain), analgesic effect ([2]; 3 mg/kg): efficiently inhibit nociceptive response; also recorded: efficiently suppressed heat pain or mechanical pain response; CFA induced inflammatory pain model (mechanical pan), analgesic effect ([3]; 3 mg/kg): efficiently inhibit nociceptive response; also recorded: efficiently suppressed heat pain or mechanical pain response |
| Clc1ccc2c(c1)-c1ncnn1Cc1c(Cl)ncn1-2 | Significant analgesic effect | Significant analgesic effect | Significant analgesic effect | – | Kp at 1 h ([4]; in vivo, LC-MS): > 0.2 |
| Cc1ncn2c1Cn1ncnc1-c1cc(C(F)F)ccc1-2 | Significant analgesic effect | Significant analgesic effect | Significant analgesic effect | – | – |
| FC(F)c1ccc2c(c1)-c1ncnn1Cc1c(Cl)ncn1-2 | Significant analgesic effect | Significant analgesic effect | Significant analgesic effect | – | – |
| Clc1ncn2c1Cn1ncnc1-c1cc(I)ccc1-2 | Significant analgesic effect | Significant analgesic effect | Significant analgesic effect | < 0.1 | – |
| Cc1ncn2c1Cn1ncnc1-c1cc(Br)ccc1-2 | Significant analgesic effect | Significant analgesic effect | Significant analgesic effect | < 0.2 | – |
| Clc1ncn2c1Cn1ncnc1-c1cc(Br)ccc1-2 [drawing 28] | – | – | – | – | Passing blood brain barrier [4, 5]: more slightly passing blood brain barrier; Kp ([4]; in vivo): < 0.5 |
| CC(C)(C)C1C(OCc2ccccn2)=NN2C(c3cc(CO)on3)=NN=CC12 (stereo not drawn) [Compound C2, (3-(3-tert-butyl-2-(2-pyridylmethoxyl)-3,3a-2H-pyrazolo[1,5-d][1,2,4]triazin-7-yl)isoxazole-5-yl)methanol] | – | – | – | – | Neuropathic pain (SNI model), analgesic effect ([1]; 3 mg/kg): efficiently treat pain; also recorded: efficiently suppressed neuropathic pain; CFA induced inflammatory pain model (heat pain), analgesic effect ([2]; 3 mg/kg): efficiently treat chronic pain; also recorded: efficiently suppressed heat pain or mechanical pain response; CFA induced inflammatory pain model (mechanical pan), analgesic effect ([3]; 3 mg/kg): efficiently treat pain; also recorded: efficiently suppressed heat pain or mechanical pain response |
| Clc1ncn2c1Cn1ncnc1-c1cc(Br)ccc1-2 [drawing 57] | Significant analgesic effect | Significant analgesic effect | Significant analgesic effect | < 0.1 | – |
| FC(F)c1ncn2c1Cn1ncnc1-c1cc(Br)ccc1-2 [drawing 27] | – | – | – | – | Passing blood brain barrier [4, 5]: slightly passing blood brain barrier; Kp ([4]; other: injection (or oral administration), brain and plasma extracted 0.25-2.0 hours after injection, LC-MS, read-out: brain/plasma ratio): < 0.5 |
| NCC1(CC(=O)O)CCCCC1 [gabapentin] | – | – | – | – | Suppression of neuropathic pain ([1]; 11 days after SNI model): efficiently suppressed neuropathic pain |
